The compounds below were run against P2X7 receptor (Homo sapiens (Human), UniProt Q99572) (assay: P2X7 FLIPR assay: antagonism of BzATP response in 293 HEK cells stably expressing P2X7 receptor). Conditions: FLIPR fluorescence (Fluo-4), agonist BzATP, 293 HEK cells stably transfected with P2X7 receptor.
Format: cell-based
Method: Cells were plated to cell density of approximately 15,000 cells/well in 384-well assay plates (50 μl/well) with 1.5% low serum media (DMEM, 1.5% BCS, 1% L-glut (2 mM), 1% P/S).
Cells were plated to cell density of approximately 15,000 cells/well in 384-well assay plates (50 μl/well) with 1.5% low serum media (DMEM, 1.5% FBS, 1% L-glut (2 mM), 10 mM HEPES, 1% P/S). Cells were plated 24 hours prior to assay. Cells expressing human, rat or mouse P2X7 receptor were assayed in the following manner.
Fluo-4 NW dye mix (Molecular Probes, Inc., Eugene, Oreg., USA) was prepared in buffer (see manufacturer's instructions). Cell plates were removed from the 37° C. incubator, the media discarded and then 30 μL of dye was added to each well. Plates were placed in the 37° C., non-CO2 incubator for 30 minutes and then room temperature for 30 minutes.
Compound mixtures (A) were added to assay plates containing cells and placed at room temperature for 30 minutes, then BzATP (B) was added. Fluorescence was read using the Tetra FLIPR® (Molecular Devices, Inc., Sunnyvale, Calif., USA) and IC50 values were calculated by standard methods to determine antagonist activity.

Chain of P2X7 receptor (Q99572 whole entry): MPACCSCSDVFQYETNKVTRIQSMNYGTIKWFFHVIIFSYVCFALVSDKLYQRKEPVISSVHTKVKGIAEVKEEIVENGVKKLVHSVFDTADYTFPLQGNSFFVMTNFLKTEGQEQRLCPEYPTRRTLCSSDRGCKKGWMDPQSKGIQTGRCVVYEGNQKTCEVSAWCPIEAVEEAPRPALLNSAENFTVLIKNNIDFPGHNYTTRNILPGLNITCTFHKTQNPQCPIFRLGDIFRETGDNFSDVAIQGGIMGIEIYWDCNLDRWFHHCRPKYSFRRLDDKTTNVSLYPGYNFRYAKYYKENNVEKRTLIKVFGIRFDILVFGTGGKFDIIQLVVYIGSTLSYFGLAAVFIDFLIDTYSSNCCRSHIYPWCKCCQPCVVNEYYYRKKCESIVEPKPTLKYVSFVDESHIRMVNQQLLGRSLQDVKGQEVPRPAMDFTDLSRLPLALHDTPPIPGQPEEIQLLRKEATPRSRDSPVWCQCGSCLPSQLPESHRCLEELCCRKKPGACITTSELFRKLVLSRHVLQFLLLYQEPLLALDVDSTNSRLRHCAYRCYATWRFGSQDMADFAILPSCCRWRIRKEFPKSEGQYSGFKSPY

Point of comparison: Cc1ncc(C(CNC(=O)c2c(Cl)cccc2Cl)N2CCC(F)(F)CC2)cn1 (single isomer, unassigned; (+)) [(+)2,6-dichloro-N-[2-(4,4-difluoro-1-piperidyl)-2-(2-methylp] [(+)2,6-dichloro-N-(2-(4,4-difluoropiperidin-1-yl)-2-(2-methylpyrimidin-5-yl)ethyl)benzamide], IC50 19 nM. Against it:
- Cn1cc(C(CNC(=O)c2cc(F)cc(Cl)c2Cl)N2CCC(F)(F)CC2)cn1 (single isomer, unassigned; (+)) [(+)2,3-dichloro-N-[2-(4,4-difluoro-1-piperidyl)-2-(1-methylp] [(+)2,3-dichloro-5-fluoro-N-(2-(4,4-difluoropiperidin-1-yl)-2-(1-methyl-1H-pyrazol-4-yl)ethyl)benzamide] — 1.8-fold higher, 34 nM
- COc1cccc(C(=O)NCC(c2cnc(C)nc2)N2CCC(F)(F)CC2)c1Cl (single isomer, unassigned; (+)) [(+)2-chloro-N-[2-(4,4-difluoro-1-piperidyl)-2-(2-methylpyrim] [(+)2-chloro-3-methoxy-N-(2-(4,4-difluoropiperidin-1-yl)-2-(2-methylpyrimidin-5-yl)ethyl)benzamide] — 1.6-fold lower, 12 nM
- COc1ccc(C(=O)NCC(c2cnc(C(F)(F)F)nc2)N2CCC(F)(F)CC2)c(Cl)c1OC (single isomer, unassigned; (-)) [(−)2-chloro-N-[2-(4,4-difluoro-1-piperidyl)-2-[2-(trifluorom] [(−)2-chloro-3,4-dimethoxy-N-(2-(4,4-difluoropiperidin-1-yl)-2-(2-(trifluoromethyl)pyrimidin-5-yl)ethyl)benzamide] — 2.4-fold lower, 7.8 nM
- Cc1ncc(C(CNC(=O)c2c(F)cccc2Cl)N2CCC(F)(F)CC2)cn1 (single isomer, unassigned; (-)) [(−)2-chloro-N-[2-(4,4-difluoro-1-piperidyl)-2-(2-methylpyrim] [(−)2-chloro-6-fluoro-N-(2-(4,4-difluoropiperidin-1-yl)-2-(2-methylpyrimidin-5-yl)ethyl)benzamide] — 1.7-fold higher, 32 nM
- O=C(NCC(c1ccc(C(F)F)nc1)N1CCC(F)(F)CC1)c1c(Cl)cccc1Cl (single isomer, unassigned; (+)) [(+)2,6-dichloro-N-[2-[6-(difluoromethyl)-3-pyridyl]-2-(4,4-d] [(+)2,6-dichloro-N-(2-(2-(difluoromethyl)pyridin-5-yl)-2-(4,4-difluoropiperidin-1-yl)ethyl)benzamide] — 2.2-fold lower, 8.7 nM
- Cc1ncc(C(CNC(=O)c2cccc(F)c2Cl)N2CCCC(F)(F)C2)cn1 (single isomer, unassigned; (+)) [(+)2-chloro-N-[2-(3,3-difluoro-1-piperidyl)-2-(2-methylpyrim] [(+)2-chloro-3-fluoro-N-(2-(3,3-difluoropiperidin-1-yl)-2-(2-methylpyrimidin-5-yl)ethyl)benzamide] — 5.3-fold higher, 100 nM
- O=C(NCC(c1cnc(C(F)(F)F)nc1)N1CCC(F)(F)CC1)c1cccc(F)c1Cl (single isomer, unassigned; (+)) [(+)2-chloro-N-[2-(4,4-difluoro-1-piperidyl)-2-[2-(trifluorom] [(+)2-chloro-N-(2-(4,4-difluoropiperidin-1-yl)-2-(2-(trifluoromethyl)pyrimidin-5-yl)ethyl)-3-fluorobenzamide] — 11-fold lower, 1.7 nM
- O=C(NCC(c1ccc(C(F)(F)F)nc1)N1CCOCC1)c1c(F)cccc1Cl (single isomer, unassigned; (-)) [(−)2-chloro-6-fluoro-N-(2-morpholino-2-(6-(trifluoromethyl)p] [(−)2-chloro-6-fluoro-N-(2-morpholino-2-(6-(trifluoromethyl)pyridin-3-yl)ethyl)benzamide] — 3.1-fold lower, 6.1 nM
- O=C(NCC(c1cnc(C(F)(F)F)nc1)N1CCC(F)CC1)c1cccc(Cl)c1Cl (single isomer, unassigned; (-)) [(−)2,3-dichloro-N-[2-(4-fluoro-1-piperidyl)-2-[2-(trifluorom] [(−)2,3-dichloro-N-(2-(4-fluoropiperidin-1-yl)-2-(2-(trifluoromethyl)pyrimidin-5-yl)ethyl)benzamide] — 4-fold lower, 4.7 nM
